Data reported in the supplement of paper PMC10307832.

Legend:
Assay in all cases: relative viability (nuclei count vs DMSO), 5 days (fraction); higher = more cells survive
[1] = compound: Cn1c(Nc2ccc(C(F)(F)F)cc2)nc2cc(Oc3ccnc(-c4ncc(C(F)(F)F)[nH]4)c3)ccc21 [RAF265] + CS(=O)(=O)N1CCN(Cc2cc3nc(-c4cccc5[nH]ncc45)nc(N4CCOCC4)c3s2)CC1 [Pictilisib] (partner 1 µM)
Procedure, shortened: (§1)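 Relative viability equals treated-well nuclei counts divided by vehicle-well nuclei counts. Counts came from 4× images of lung cancer cell lines grown in 1536-well plates for 5 days after pin-tool dosing on the day after seeding. Dosing used one drug alone or a fixed anchor-drug dose plus five library-drug doses (not always all listed) in √10 steps, and values are medians of duplicate plates.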

[2] = compound: C1=CC=C2C(=C1)C=CC(=C2SSC3=C(C=CC4=CC=CC=C43)O)O [IPA-3] + Cc1cc(Nc2cc(N3CCN(C)CC3)nc(Sc3ccc(NC(=O)C4CC4)cc3)n2)n[nH]1 [Tozasertib] (partner 0.1 µM)
Procedure, shortened: as §1

[3] = compound: Cn1c(Nc2ccc(C(F)(F)F)cc2)nc2cc(Oc3ccnc(-c4ncc(C(F)(F)F)[nH]4)c3)ccc21 [RAF265] + CC(C)C[C@H](NC(=O)[C@H](Cc1ccccc1)NC(=O)c1cnccn1)B(O)O [Bortezomib] (partner 0.002 µM)
Procedure, shortened: as §1

[4] = compound: Cn1c(Nc2ccc(C(F)(F)F)cc2)nc2cc(Oc3ccnc(-c4ncc(C(F)(F)F)[nH]4)c3)ccc21 [RAF265] + O=C(c1cc(Cc2n[nH]c(=O)c3ccccc23)ccc1F)N1CCN(C(=O)C2CC2)CC1 [Olaparib] (partner 8 µM)
Procedure, shortened: as §1

HCC-78
relative viability ([1]; first compound 0.01 µM): 0.224 | relative viability ([1]; first compound 0.03162 µM): 0.216 | relative viability ([1]; first compound 0.1 µM): 0.291 | relative viability ([1]; first compound 0.3162 µM): 0.171 | relative viability ([1]; first compound 1 µM): 0.145 | relative viability ([2]; first compound 0.2 µM): 0.508 | relative viability ([2]; first compound 0.6325 µM): 0.429 | relative viability ([2]; first compound 2 µM): 0.448 | relative viability ([2]; first compound 6.325 µM): 0.402 | relative viability ([2]; first compound 20 µM): 0.398 | relative viability ([3]; first compound 0.01 µM): 0.535 | relative viability ([3]; first compound 0.03162 µM): 0.506 | relative viability ([3]; first compound 0.1 µM): 0.52 | relative viability ([3]; first compound 0.3162 µM): 0.956 | relative viability ([3]; first compound 1 µM): 0.423 | relative viability ([4]; first compound 0.01 µM): 1 | relative viability ([4]; first compound 0.03162 µM): 0.876 | relative viability ([4]; first compound 0.1 µM): 1.06 | relative viability ([4]; first compound 0.3162 µM): 0.864 | relative viability ([4]; first compound 1 µM): 0.724

NCI-H2126
relative viability ([1]; first compound 0.01 µM): 0.5 | relative viability ([1]; first compound 0.03162 µM): 0.491 | relative viability ([1]; first compound 0.1 µM): 0.491 | relative viability ([1]; first compound 0.3162 µM): 0.405 | relative viability ([1]; first compound 1 µM): 0.415 | relative viability ([2]; first compound 0.2 µM): 0.922 | relative viability ([2]; first compound 0.6325 µM): 0.78 | relative viability ([2]; first compound 2 µM): 0.875 | relative viability ([2]; first compound 6.325 µM): 0.842 | relative viability ([2]; first compound 20 µM): 0.872 | relative viability ([3]; first compound 0.01 µM): 1.05 | relative viability ([3]; first compound 0.03162 µM): 1.1 | relative viability ([3]; first compound 0.1 µM): 1.13 | relative viability ([3]; first compound 0.3162 µM): 1.14 | relative viability ([3]; first compound 1 µM): 0.926 | relative viability ([4]; first compound 0.01 µM): 0.942 | relative viability ([4]; first compound 0.03162 µM): 0.907 | relative viability ([4]; first compound 0.1 µM): 0.901 | relative viability ([4]; first compound 0.3162 µM): 0.818 | relative viability ([4]; first compound 1 µM): 0.724

H3255
relative viability ([1]; first compound 0.01 µM): 0.494 | relative viability ([1]; first compound 0.03162 µM): 0.512 | relative viability ([1]; first compound 0.1 µM): 0.522 | relative viability ([1]; first compound 0.3162 µM): 0.132 | relative viability ([1]; first compound 1 µM): 0.336 | relative viability ([2]; first compound 0.2 µM): 0.595 | relative viability ([2]; first compound 0.6325 µM): 0.655 | relative viability ([2]; first compound 2 µM): 0.652 | relative viability ([2]; first compound 6.325 µM): 0.602 | relative viability ([2]; first compound 20 µM): 0.741 | relative viability ([3]; first compound 0.01 µM): 0.901 | relative viability ([3]; first compound 0.03162 µM): 0.776 | relative viability ([3]; first compound 0.1 µM): 1.06 | relative viability ([3]; first compound 1 µM): 0.696 | relative viability ([4]; first compound 0.01 µM): 0.589 | relative viability ([4]; first compound 0.03162 µM): 0.568 | relative viability ([4]; first compound 0.1 µM): 0.538 | relative viability ([4]; first compound 1 µM): 0.454

HCC-15
relative viability ([1]; first compound 0.01 µM): 0.805 | relative viability ([1]; first compound 0.03162 µM): 0.625 | relative viability ([1]; first compound 0.1 µM): 0.645 | relative viability ([1]; first compound 0.3162 µM): 0.49 | relative viability ([1]; first compound 1 µM): 0.333 | relative viability ([2]; first compound 0.2 µM): 0.61 | relative viability ([2]; first compound 0.6325 µM): 0.367 | relative viability ([2]; first compound 2 µM): 0.457 | relative viability ([2]; first compound 6.325 µM): 0.431 | relative viability ([2]; first compound 20 µM): 0.442 | relative viability ([3]; first compound 0.01 µM): 0.95 | relative viability ([3]; first compound 0.03162 µM): 0.96 | relative viability ([3]; first compound 0.1 µM): 0.985 | relative viability ([3]; first compound 0.3162 µM): 0.941 | relative viability ([3]; first compound 1 µM): 0.792 | relative viability ([4]; first compound 0.01 µM): 0.837 | relative viability ([4]; first compound 0.03162 µM): 0.647 | relative viability ([4]; first compound 0.1 µM): 0.656 | relative viability ([4]; first compound 0.3162 µM): 0.608 | relative viability ([4]; first compound 1 µM): 0.43

NCI-H661
relative viability ([1]; first compound 0.01 µM): 0.438 | relative viability ([1]; first compound 0.03162 µM): 0.498 | relative viability ([1]; first compound 0.1 µM): 0.383 | relative viability ([1]; first compound 0.3162 µM): 0.288 | relative viability ([1]; first compound 1 µM): 0.283 | relative viability ([2]; first compound 0.2 µM): 0.328 | relative viability ([2]; first compound 0.6325 µM): 0.356 | relative viability ([2]; first compound 2 µM): 0.358 | relative viability ([2]; first compound 6.325 µM): 0.338 | relative viability ([2]; first compound 20 µM): 0.347 | relative viability ([3]; first compound 0.01 µM): 0.87 | relative viability ([3]; first compound 0.03162 µM): 0.649 | relative viability ([3]; first compound 0.1 µM): 0.862 | relative viability ([3]; first compound 0.3162 µM): 0.657 | relative viability ([3]; first compound 1 µM): 0.403 | relative viability ([4]; first compound 0.01 µM): 0.775 | relative viability ([4]; first compound 0.03162 µM): 0.667 | relative viability ([4]; first compound 0.1 µM): 0.724 | relative viability ([4]; first compound 0.3162 µM): 0.605 | relative viability ([4]; first compound 1 µM): 0.464

NCI-H2009
relative viability ([1]; first compound 0.01 µM): 0.884 | relative viability ([1]; first compound 0.03162 µM): 0.539 | relative viability ([1]; first compound 0.1 µM): 0.444 | relative viability ([1]; first compound 0.3162 µM): 0.438 | relative viability ([1]; first compound 1 µM): 0.288 | relative viability ([2]; first compound 0.2 µM): 0.805 | relative viability ([2]; first compound 0.6325 µM): 0.681 | relative viability ([2]; first compound 2 µM): 0.834 | relative viability ([2]; first compound 6.325 µM): 0.718 | relative viability ([2]; first compound 20 µM): 0.725 | relative viability ([3]; first compound 0.01 µM): 1.05 | relative viability ([3]; first compound 0.03162 µM): 0.981 | relative viability ([3]; first compound 0.1 µM): 0.905 | relative viability ([3]; first compound 0.3162 µM): 0.899 | relative viability ([3]; first compound 1 µM): 0.657 | relative viability ([4]; first compound 0.01 µM): 0.785 | relative viability ([4]; first compound 0.03162 µM): 0.594 | relative viability ([4]; first compound 0.1 µM): 0.603 | relative viability ([4]; first compound 0.3162 µM): 0.671 | relative viability ([4]; first compound 1 µM): 0.579

HCC-44
relative viability ([1]; first compound 0.01 µM): 0.631 | relative viability ([1]; first compound 0.03162 µM): 0.697 | relative viability ([1]; first compound 0.1 µM): 0.55 | relative viability ([1]; first compound 0.3162 µM): 0.507 | relative viability ([1]; first compound 1 µM): 0.561 | relative viability ([2]; first compound 0.2 µM): 1.09 | relative viability ([2]; first compound 0.6325 µM): 0.953 | relative viability ([2]; first compound 2 µM): 0.996 | relative viability ([2]; first compound 6.325 µM): 0.71 | relative viability ([2]; first compound 20 µM): 0.93 | relative viability ([3]; first compound 0.01 µM): 0.862 | relative viability ([3]; first compound 0.03162 µM): 0.818 | relative viability ([3]; first compound 0.1 µM): 0.9 | relative viability ([3]; first compound 0.3162 µM): 0.957 | relative viability ([3]; first compound 1 µM): 0.873 | relative viability ([4]; first compound 0.01 µM): 0.977 | relative viability ([4]; first compound 0.03162 µM): 0.985 | relative viability ([4]; first compound 0.1 µM): 0.998 | relative viability ([4]; first compound 0.3162 µM): 0.984 | relative viability ([4]; first compound 1 µM): 1.01

ChaGo-K-1
relative viability ([1]; first compound 0.01 µM): 0.786 | relative viability ([1]; first compound 0.03162 µM): 0.833 | relative viability ([1]; first compound 0.1 µM): 0.8 | relative viability ([1]; first compound 0.3162 µM): 0.765 | relative viability ([1]; first compound 1 µM): 0.56 | relative viability ([2]; first compound 0.2 µM): 0.228 | relative viability ([2]; first compound 0.6325 µM): 0.236 | relative viability ([2]; first compound 2 µM): 0.231 | relative viability ([2]; first compound 6.325 µM): 0.221 | relative viability ([2]; first compound 20 µM): 0.251 | relative viability ([3]; first compound 0.01 µM): 0.92 | relative viability ([3]; first compound 0.03162 µM): 1.08 | relative viability ([3]; first compound 0.1 µM): 1.12 | relative viability ([3]; first compound 0.3162 µM): 1.03 | relative viability ([3]; first compound 1 µM): 0.662 | relative viability ([4]; first compound 0.01 µM): 0.411 | relative viability ([4]; first compound 0.03162 µM): 0.429 | relative viability ([4]; first compound 0.1 µM): 0.464 | relative viability ([4]; first compound 0.3162 µM): 0.422 | relative viability ([4]; first compound 1 µM): 0.371
